Results from PMC5218480 (PLoS ONE, 2017).

Test system: MV-4-11 cells
Test: Gene expression microarray analysis (Affymetrix PrimeView) and GSEA
Assay type: cell-based, human
Design: RFU PODN (11730768_x_at) / Fold change /veh PODN (11730768_x_at) / RFU LINC00158 (11744669_a_at) / Fold change /veh LINC00158 (11744669_a_at) / RFU DUSP10 (11751237_a_at) / Fold change /veh DUSP10 (11751237_a_at) / RFU ID3 (11757404_x_at) / Fold change /veh ID3 (11757404_x_at) / RFU PLEKHG5 (11737974_s_at) / Fold change /veh PLEKHG5 (11737974_s_at) / RFU LRRC4B (11730491_at) / Fold change /veh LRRC4B (11730491_at) / RFU GIMAP4 (11747438_a_at) / Fold change /veh GIMAP4 (11747438_a_at) / RFU KRT8 (11758183_x_at) / Fold change /veh KRT8 (11758183_x_at) / RFU CNN1 (11734310_a_at) / Fold change /veh CNN1 (11734310_a_at) / RFU VPS37D (11726825_at) / Fold change /veh VPS37D (11726825_at) / RFU C10orf10 (11716522_x_at) / Fold change /veh C10orf10 (11716522_x_at) / RFU KIR2DL2 /// KIR2DL4 /// KIR2DL5A /// KIR2DL5B /// KIR2DS1 /// KIR2DS2 /// KIR2DS3 /// KIR2DS4 /// KIR3DL3 /// KIR3DL3 /// KIR3DS1 (11738374_at) / Fold change /veh KIR2DL2 /// KIR2DL4 /// KIR2DL5A /// KIR2DL5B /// KIR2DS1 /// KIR2DS2 /// KIR2DS3 /// KIR2DS4 /// KIR3DL3 /// KIR3DL3 /// KIR3DS1 (11738374_at) / RFU C1QL1 (11718748_at) / Fold change /veh C1QL1 (11718748_at) / RFU TMPRSS4 (11747572_a_at) / Fold change /veh TMPRSS4 (11747572_a_at) / RFU HAMP (11756126_x_at) / Fold change /veh HAMP (11756126_x_at) / RFU RNFT2 (11725882_a_at) / Fold change /veh RNFT2 (11725882_a_at) / RFU NR4A2 (11747474_a_at) / Fold change /veh NR4A2 (11747474_a_at) / RFU ABCC12 (11746883_a_at) / Fold change /veh ABCC12 (11746883_a_at) / RFU TMEM136 (11760407_x_at) / Fold change /veh TMEM136 (11760407_x_at) / RFU CLDN22 /// WWC2 (11732394_at) / Fold change /veh CLDN22 /// WWC2 (11732394_at) / RFU HLA-DPB1 (11760878_x_at) / Fold change /veh HLA-DPB1 (11760878_x_at) / RFU SPINT1 (11716480_a_at) / Fold change /veh SPINT1 (11716480_a_at) / RFU GAP43 (11754022_s_at) / Fold change /veh GAP43 (11754022_s_at) / RFU A4GNT (11735810_at) / Fold change /veh A4GNT (11735810_at) / RFU PRB3 (11715151_x_at) / Fold change /veh PRB3 (11715151_x_at) / RFU TUBB4B (11761932_at) / Fold change /veh TUBB4B (11761932_at) / RFU CAPN14 (11732068_a_at) / Fold change /veh CAPN14 (11732068_a_at) / RFU TMCC2 (11721928_a_at) / Fold change /veh TMCC2 (11721928_a_at) / RFU IRGQ (11745062_a_at) / Fold change /veh IRGQ (11745062_a_at) / RFU FAM174B (11720279_a_at) / Fold change /veh FAM174B (11720279_a_at) / RFU TMPRSS4 (11748680_a_at) / Fold change /veh TMPRSS4 (11748680_a_at) / RFU FAM212B (11763350_a_at) / Fold change /veh FAM212B (11763350_a_at) / RFU PLEKHG5 (11743358_a_at) / Fold change /veh PLEKHG5 (11743358_a_at) / RFU ZSCAN30 (11745921_a_at) / Fold change /veh ZSCAN30 (11745921_a_at) / RFU CMKLR1 (11741424_a_at) / Fold change /veh CMKLR1 (11741424_a_at) / RFU LOC101060620 /// MAPK8IP1 (11723275_at) / Fold change /veh LOC101060620 /// MAPK8IP1 (11723275_at) / RFU SPTSSB (11747773_x_at) / Fold change /veh SPTSSB (11747773_x_at) / RFU PRSS12 (11739890_at) / Fold change /veh PRSS12 (11739890_at) / RFU BIN1 (11741810_x_at) / Fold change /veh BIN1 (11741810_x_at) / RFU WNT11 (11732464_a_at) / Fold change /veh WNT11 (11732464_a_at) / RFU C10orf10 (11716521_a_at) / Fold change /veh C10orf10 (11716521_a_at) / RFU C5orf56 (11738089_at) / Fold change /veh C5orf56 (11738089_at) / RFU CYB561 (11721691_x_at) / Fold change /veh CYB561 (11721691_x_at) / RFU ANKRD19P (11752326_a_at) / Fold change /veh ANKRD19P (11752326_a_at) / RFU OR2T12 /// OR2T33 /// OR2T8 (11738714_s_at) / Fold change /veh OR2T12 /// OR2T33 /// OR2T8 (11738714_s_at) / RFU VCAN (11748164_a_at) / Fold change /veh VCAN (11748164_a_at) / RFU JSRP1 (11732532_at) / Fold change /veh JSRP1 (11732532_at) / RFU KRTAP10-11 (11738290_x_at) / Fold change /veh KRTAP10-11 (11738290_x_at) / RFU MYO3A (11730013_a_at) / Fold change /veh MYO3A (11730013_a_at) / RFU EBF3 (11725865_a_at) / Fold change /veh EBF3 (11725865_a_at) / RFU CAMK2N1 (11719241_x_at) / Fold change /veh CAMK2N1 (11719241_x_at) / RFU C5orf56 (11738088_a_at) / Fold change /veh C5orf56 (11738088_a_at) / RFU OLFML3 (11715873_a_at) / Fold change /veh OLFML3 (11715873_a_at) / RFU LOC100653217 /// NTM (11731650_a_at) / Fold change /veh LOC100653217 /// NTM (11731650_a_at) / RFU MAPK11 (11762145_a_at) / Fold change /veh MAPK11 (11762145_a_at) / RFU FIZ1 (11724087_x_at) / Fold change /veh FIZ1 (11724087_x_at) / RFU OASL (11726364_x_at) / Fold change /veh OASL (11726364_x_at) / RFU SOX15 (11748057_x_at) / Fold change /veh SOX15 (11748057_x_at) / RFU CD79A (11719716_a_at) / Fold change /veh CD79A (11719716_a_at) / RFU HIST1H1D (11736915_at) / Fold change /veh HIST1H1D (11736915_at) / RFU CASKIN2 (11723855_a_at) / Fold change /veh CASKIN2 (11723855_a_at) / RFU LOC730098 (11760151_x_at) / Fold change /veh LOC730098 (11760151_x_at) / RFU OR4N2 (11742367_at) / Fold change /veh OR4N2 (11742367_at) / RFU PRRT2 (11749266_a_at) / Fold change /veh PRRT2 (11749266_a_at) / RFU SNX32 (11753110_a_at) / Fold change /veh SNX32 (11753110_a_at) / RFU CDHR5 (11726645_a_at) / Fold change /veh CDHR5 (11726645_a_at) / RFU RCAN1 (11760418_a_at) / Fold change /veh RCAN1 (11760418_a_at) / RFU FAM167A (11723789_a_at) / Fold change /veh FAM167A (11723789_a_at) / RFU FAM26E (11764081_at) / Fold change /veh FAM26E (11764081_at) / RFU ISYNA1 (11749810_s_at) / Fold change /veh ISYNA1 (11749810_s_at) / RFU ACY1 (11761880_at) / Fold change /veh ACY1 (11761880_at) / RFU 11764098_at / Fold change /veh 11764098_at / RFU SAMD14 (11745864_x_at) / Fold change /veh SAMD14 (11745864_x_at) / RFU NPB (11741838_a_at) / Fold change /veh NPB (11741838_a_at) / RFU TMPRSS6 (11731388_a_at) / Fold change /veh TMPRSS6 (11731388_a_at) / RFU KRTAP10-2 (11738614_at) / Fold change /veh KRTAP10-2 (11738614_at) / RFU ARHGAP8 /// PRR5-ARHGAP8 (11727945_x_at) / Fold change /veh ARHGAP8 /// PRR5-ARHGAP8 (11727945_x_at) / RFU KRTAP5-7 /// NADSYN1 (11734609_at) / Fold change /veh KRTAP5-7 /// NADSYN1 (11734609_at) / RFU RASL12 (11751679_a_at) / Fold change /veh RASL12 (11751679_a_at) / RFU CDKN2B (11736163_a_at) / Fold change /veh CDKN2B (11736163_a_at) / RFU PRF1 (11729649_at) / Fold change /veh PRF1 (11729649_at) / RFU, ZNF638 /// ZNF638-IT1 / Fold change vs veh, ZNF638 /// ZNF638-IT1 / RFU, PANK3 / Fold change vs veh, PANK3 / RFU, SH3YL1 / Fold change vs veh, SH3YL1 / RFU, ZEB2 / Fold change vs veh, ZEB2 / RFU, NRIP1 / Fold change vs veh, NRIP1 / RFU, PTTG1IP / Fold change vs veh, PTTG1IP / RFU, CAPN2 / Fold change vs veh, CAPN2 / RFU, MED14 / Fold change vs veh, MED14 / RFU, SNORA58 / Fold change vs veh, SNORA58 / RFU, C1orf63 / Fold change vs veh, C1orf63 / RFU, LRRFIP1 / Fold change vs veh, LRRFIP1 / RFU, NDUFAF7 / Fold change vs veh, NDUFAF7 / RFU, SLC12A2 / Fold change vs veh, SLC12A2 / RFU, IBTK / Fold change vs veh, IBTK / RFU, ESF1 / Fold change vs veh, ESF1 / Fold change vs veh, TMEM50B / RFU, TAOK1 / Fold change vs veh, TAOK1 / RFU, ACBD3 / Fold change vs veh, ACBD3 / RFU, TMA16 / Fold change vs veh, TMA16 / RFU, RWDD3 / Fold change vs veh, RWDD3 / RFU, BCAT1 / Fold change vs veh, BCAT1 / RFU, EDEM3 / Fold change vs veh, EDEM3 / RFU, TMEM33 / Fold change vs veh, TMEM33 / RFU, WDR75 / Fold change vs veh, WDR75 / RFU, AHCTF1 / Fold change vs veh, AHCTF1 / RFU, TFRC / Fold change vs veh, TFRC / RFU, ZDHHC17 / Fold change vs veh, ZDHHC17 / RFU, NOM1 / Fold change vs veh, NOM1 / RFU, ARL8B / Fold change vs veh, ARL8B / RFU, ZBTB11 / Fold change vs veh, ZBTB11 / RFU, TAMM41 / Fold change vs veh, TAMM41 / RFU, KIAA1704 /// LOC100996395 / Fold change vs veh, KIAA1704 /// LOC100996395 / RFU, ING1 / Fold change vs veh, ING1 / RFU, TRMT61B / Fold change vs veh, TRMT61B / RFU, FUBP3 / Fold change vs veh, FUBP3 / RFU, TP53 / Fold change vs veh, TP53 / RFU, TNKS2 / Fold change vs veh, TNKS2 / RFU, ZFP14 / Fold change vs veh, ZFP14 / RFU, ACTR2 / Fold change vs veh, ACTR2 / RFU, PPP3R1 / Fold change vs veh, PPP3R1 / RFU, PIK3R1 / Fold change vs veh, PIK3R1 / RFU, HNRNPA1 / Fold change vs veh, HNRNPA1 / RFU, RNF170 / Fold change vs veh, RNF170 / RFU, ZNF28 / Fold change vs veh, ZNF28 / RFU, RNGTT / Fold change vs veh, RNGTT / RFU, OGT / Fold change vs veh, OGT / RFU, BRD1 / Fold change vs veh, BRD1 / RFU, MARS / Fold change vs veh, MARS / RFU, ZNF655 / Fold change vs veh, ZNF655 / RFU, FAHD1 / Fold change vs veh, FAHD1 / RFU, BDP1 / Fold change vs veh, BDP1 / RFU, LRRCC1 / Fold change vs veh, LRRCC1 / RFU, ARID1A / Fold change vs veh, ARID1A / RFU, ZNF146 / Fold change vs veh, ZNF146 / RFU, ZNF330 / Fold change vs veh, ZNF330 / RFU, GPN3 / Fold change vs veh, GPN3 / RFU, C9orf123 / Fold change vs veh, C9orf123 / RFU, N4BP2L2 / Fold change vs veh, N4BP2L2 / RFU, ARFIP1 / Fold change vs veh, ARFIP1 / RFU, FAM179B / Fold change vs veh, FAM179B / RFU, BCL10 / Fold change vs veh, BCL10 / RFU, UHRF1BP1L / Fold change vs veh, UHRF1BP1L / RFU, BET1 / Fold change vs veh, BET1 / RFU, CNOT2 / Fold change vs veh, CNOT2 / RFU, ZNF268 / Fold change vs veh, ZNF268 / Fold change vs veh, ZNF507 / RFU, DGCR2 / Fold change vs veh, DGCR2 / RFU, WDSUB1 / Fold change vs veh, WDSUB1 / Fold change vs veh, HSP90B1 /// MIR3652 / RFU, ADSS / Fold change vs veh, ADSS / RFU, GK / Fold change vs veh, GK / RFU, ZNF148 / Fold change vs veh, ZNF148 / RFU, TAF9 / Fold change vs veh, TAF9 / RFU, SLC1A5 / Fold change vs veh, SLC1A5 / RFU, SLMO2 / Fold change vs veh, SLMO2 / RFU, ABCC4 / Fold change vs veh, ABCC4 / RFU, LOC101060439 /// RAP1B / Fold change vs veh, LOC101060439 /// RAP1B / RFU, RFX7 / Fold change vs veh, RFX7 / RFU, GTPBP10 / Fold change vs veh, GTPBP10 / RFU, CNEP1R1 / Fold change vs veh, CNEP1R1 / RFU, BIVM-ERCC5 /// ERCC5 / Fold change vs veh, BIVM-ERCC5 /// ERCC5 / RFU, ILF3 / Fold change vs veh, ILF3 / RFU 11762660_at / Fold change /veh 11762660_at / RFU VCAN (11757783_s_at) / Fold change /veh VCAN (11757783_s_at) / RFU DDX43 (11728927_at) / Fold change /veh DDX43 (11728927_at) / RFU KRT8 (11758188_x_at) / Fold change /veh KRT8 (11758188_x_at) / RFU NKD1 (11759106_at) / Fold change /veh NKD1 (11759106_at) / RFU SRD5A1 (11742802_a_at) / Fold change /veh SRD5A1 (11742802_a_at) / RFU TPSAB1 /// TPSB2 (11721975_s_at) / Fold change /veh TPSAB1 /// TPSB2 (11721975_s_at) / RFU GSTM3 (11746129_a_at) / Fold change /veh GSTM3 (11746129_a_at) / RFU IL23R (11737362_x_at) / Fold change /veh IL23R (11737362_x_at) / RFU TMEM51 (11727254_a_at) / Fold change /veh TMEM51 (11727254_a_at) / RFU PIWIL2 (11732686_x_at) / Fold change /veh PIWIL2 (11732686_x_at) / RFU ORM1 (11744905_x_at) / Fold change /veh ORM1 (11744905_x_at) / RFU CCDC152 (11743942_at) / Fold change /veh CCDC152 (11743942_at) / RFU ECM1 (11717891_a_at) / Fold change /veh ECM1 (11717891_a_at) / RFU IL23R (11748794_a_at) / Fold change /veh IL23R (11748794_a_at) / RFU TNFAIP8L3 (11732012_x_at) / Fold change /veh TNFAIP8L3 (11732012_x_at) / RFU MBOAT4 (11741988_at) / Fold change /veh MBOAT4 (11741988_at) / RFU 11764193_at / Fold change /veh 11764193_at / RFU TMEM53 (11763286_at) / Fold change /veh TMEM53 (11763286_at) / RFU MAGEB2 (11727129_at) / Fold change /veh MAGEB2 (11727129_at) / RFU TMEM200A (11744735_a_at) / Fold change /veh TMEM200A (11744735_a_at) / RFU CCDC152 (11751479_a_at) / Fold change /veh CCDC152 (11751479_a_at) / RFU FAM211A (11726209_a_at) / Fold change /veh FAM211A (11726209_a_at) / RFU RGS16 (11746705_a_at) / Fold change /veh RGS16 (11746705_a_at) / RFU VCAN (11755009_s_at) / Fold change /veh VCAN (11755009_s_at) / RFU RHOB (11743442_s_at) / Fold change /veh RHOB (11743442_s_at) / RFU RGS16 (11720943_a_at) / Fold change /veh RGS16 (11720943_a_at) / RFU RGS16 (11720944_at) / Fold change /veh RGS16 (11720944_at) / RFU, VPS4B / Fold change vs veh, VPS4B / RFU, CREB1 / Fold change vs veh, CREB1 / RFU, DNAJC13 / Fold change vs veh, DNAJC13 / RFU, GNAQ / Fold change vs veh, GNAQ / RFU, CDK5R1 / Fold change vs veh, CDK5R1 / RFU, ZRANB3 / Fold change vs veh, ZRANB3 / RFU, CUL4A / Fold change vs veh, CUL4A / RFU, CCNY / Fold change vs veh, CCNY / RFU, UFL1 / Fold change vs veh, UFL1 / RFU, COG3 / Fold change vs veh, COG3 / RFU, DIAPH2 / Fold change vs veh, DIAPH2 / RFU, SKA2 / Fold change vs veh, SKA2 / RFU, AFF3 / Fold change vs veh, AFF3 / RFU, LMF1 / Fold change vs veh, LMF1 / RFU, IPO11 / Fold change vs veh, IPO11 / RFU, DFFB / Fold change vs veh, DFFB / RFU, FOXP1 / Fold change vs veh, FOXP1 / RFU, CARD8 / Fold change vs veh, CARD8 / RFU, STRN3 / Fold change vs veh, STRN3 / RFU, ADK / Fold change vs veh, ADK / RFU, RASSF2 / Fold change vs veh, RASSF2 / RFU, WIPF1 / Fold change vs veh, WIPF1 / RFU, LARP1B / Fold change vs veh, LARP1B / RFU, RASA1 / Fold change vs veh, RASA1 / RFU, RB1 / Fold change vs veh, RB1 / RFU, PPFIA1 / Fold change vs veh, PPFIA1 / RFU, MAT2A / Fold change vs veh, MAT2A / RFU, CCT5 / Fold change vs veh, CCT5 / RFU, WDR92 / Fold change vs veh, WDR92 / RFU, CUX1 / Fold change vs veh, CUX1 / RFU, TTC7A / Fold change vs veh, TTC7A / RFU, TMEM135 / Fold change vs veh, TMEM135 / RFU, DEPTOR / Fold change vs veh, DEPTOR / RFU, CPM / Fold change vs veh, CPM / RFU, DNAJB6 / Fold change vs veh, DNAJB6 / RFU, CACNA2D3 / Fold change vs veh, CACNA2D3 / RFU, DTX4 / Fold change vs veh, DTX4 / RFU, TFCP2 / Fold change vs veh, TFCP2 / RFU, GMCL1 /// GMCL1P1 / Fold change vs veh, GMCL1 /// GMCL1P1 / RFU, AEBP2 / Fold change vs veh, AEBP2 / RFU, SNHG1 /// SNORD22 /// SNORD25 /// SNORD26 /// SNORD27 /// SNORD28 /// SNORD29 /// SNORD31 / Fold change vs veh, SNHG1 /// SNORD22 /// SNORD25 /// SNORD26 /// SNORD27 /// SNORD28 /// SNORD29 /// SNORD31 / Fold change (Aza/veh), C12orf56 (ProbeSet 11735607_a_at) / Fold change (ACY-1035/veh), C12orf56 (ProbeSet 11735607_a_at) / Fold change (Aza/veh), FGFR1OP (ProbeSet 11751329_s_at) / Fold change (ACY-1035/veh), FGFR1OP (ProbeSet 11751329_s_at) / Fold change (Aza/veh), VPS36 (ProbeSet 11739960_a_at) / Fold change (ACY-1035/veh), VPS36 (ProbeSet 11739960_a_at) / RFU SYPL1 (11715823_x_at) / Fold change /veh SYPL1 (11715823_x_at) / RFU IGFBP7 (11715501_s_at) / Fold change /veh IGFBP7 (11715501_s_at) / RFU REEP3 (11722064_at) / Fold change /veh REEP3 (11722064_at) / RFU IGLL1 (11728026_x_at) / Fold change /veh IGLL1 (11728026_x_at): dose or concentration left out as unconfirmed
Conditions: MV-4-11 cells, 48 hours

With `Nc1ncn([C@@H]2O[C@H](CO)[C@@H](O)[C@H]2O)c(=O)n1` [azacitidine] the “RFU FAM211A (11726209_a_at)” value was 7.10 RFU.
